What was measured:
[1] = molecular target: T1, BCRP (Homo sapiens, UniProt Q9UNQ0); assay: MDCKII-BCRP bidirectional permeability / efflux assay; format: in vitro ADME; details: for substrate for the BCRP transporter: based on efflux ratio (> 2.0 = substrate); for Papp A→B at 120 min / Papp B→A at 120 min / efflux ratio at 120 min: dog, MDCKII-BCRP, absence of Ko143
T1 construct: host or cells: MDCKII-BCRP (canine MDR1 knockout, transfected with BCRP)
T1 sequence (Q9UNQ0 1-655): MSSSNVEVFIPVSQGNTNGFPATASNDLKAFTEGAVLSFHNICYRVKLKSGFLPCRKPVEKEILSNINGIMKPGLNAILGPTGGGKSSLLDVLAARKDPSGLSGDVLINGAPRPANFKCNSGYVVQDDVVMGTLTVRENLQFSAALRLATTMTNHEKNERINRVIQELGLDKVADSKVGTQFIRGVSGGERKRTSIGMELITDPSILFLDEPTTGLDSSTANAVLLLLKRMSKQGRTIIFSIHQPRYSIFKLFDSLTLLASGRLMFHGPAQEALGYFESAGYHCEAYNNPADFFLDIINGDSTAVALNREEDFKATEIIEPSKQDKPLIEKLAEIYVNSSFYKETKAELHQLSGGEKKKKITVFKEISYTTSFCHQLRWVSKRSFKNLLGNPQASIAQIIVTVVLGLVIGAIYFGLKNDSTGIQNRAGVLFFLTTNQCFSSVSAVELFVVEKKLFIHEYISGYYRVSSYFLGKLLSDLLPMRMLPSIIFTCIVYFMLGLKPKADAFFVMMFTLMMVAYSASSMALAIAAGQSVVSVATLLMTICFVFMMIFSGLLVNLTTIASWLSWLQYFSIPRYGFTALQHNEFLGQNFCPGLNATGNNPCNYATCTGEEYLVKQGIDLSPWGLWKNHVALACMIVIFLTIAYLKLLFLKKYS
Protocol: For each experiment, the apparent permeability (Papp) for each direction and the efflux ratio (ER) were determined by the equations: Papp(cm/s)=(dQ/dt)/A×Co
Where P(B→A) is the apparent permeability of the compounds from the basal to the apical direction and P(A→B) is the apparent permeability from the apical to basal direction. […] The results are presented as an average of two independent experiments.

[2] = Microsomal metabolic stability, mouse; format: in vitro ADME; details: liver microsomes; for microsomal CLint at 1.1 μM: pH 7.4, 0.5 mg/mL; for half-life at 1.1 μM: pH 7.4, read-out: t1/2 (mouse)
Protocol: (§1) The assay was performed at Jubilant Biosys. Vials containing human or mouse microsomes were collected from the -80 °C freezer and thawed on ice. Then 27.5 μL of the initial microsome solutions (20 mg/mL) were diluted in 971.5 μL of a 67 mM potassium phosphate buffer solution (pH 7.4). The testing compounds were diluted in the buffered microsomal solution to obtain a final concentration of 1.1 μM. Then four different aliquots, each containing 180 μL of the assay solution, representing the samples at T = 0, T = 5, T = 15, and T = 30 min. The samples were pre-incubated at 37 °C for 5 min with gentle shaking, and then 20 μL of a NADPH solution (10 mM) was added to the different solutions of the test compounds. […] An aliquot of the supernatant (200 μL) was collected from each reaction sample and analyzed by LC-MS/MS. The Ln values of the peak area of the compounds to the internal standard over time (min.) were graphed using Excel, and the elimination rates of the compounds (k) were determined from the slopes obtained from the graphs. The k values were used to calculate the compounds half-life using the equation: t1/2=Ln2/k The intrinsic clearance (CLint) of each compound in the presence of mouse and human microsomes was calculated using the equation: […] Verapamil and Ketoconazole were used as controls to evaluate the assay performance. The results are presented as an average of two technical replicates.

[3] = In vitro cytotoxicity, CellTiter-Glo, HepG2; format: cell-based; details: human, HepG2 cells; for viability at 24 h, 30 μM / viability at 48 h, 30 μM: relative to untreated cells, read-out: Percentage of viable cells observed at 30 μM treatment, HepG2; for EC50 at 24 h / EC50 at 48 h: cytotoxicity
Protocol: (§2) The HepG2 and HEK293 cells were cultured in DMEM media supplemented with 10 % FBS (heat-inactivated), 1 % Pen-strep, and L-glutamine and incubated at 37 °C in humidified air with 5 % CO2 until 85–90 % confluency. The PC12 Tet-Off-SOD1^G85R YFP cells were maintained as described in 4.2. On the day before the experiments, the cells were transferred to white bottom 96 well plates (Greiner cat. 655,083) at a concentration of 50,000 cells/100 μL of media in each well and incubated overnight at 37 °C. Stock solutions of the compounds (30 mM) in DMSO were prepared and then diluted in media to obtain the six final working solutions starting at 30 μM, and serial dilutions were obtained with the lowest concentration at 0.25 μM. The media were removed and fresh media containing the compounds or the vehicle DMSO (0.1 % v/v) were transferred to the plates containing HepG2 and HEK293 cells and the plates were incubated for 24 or 48 h at 37 °C. The PC12 Tet-Off-SOD1^G85R YFP cells compound treatment was performed as described in section 4.2 and using a 9-point 2-fold serial dilution of the compounds starting at 15 μM and the lowest concentration at 0.05 μM. After incubation, the plates were cooled to room temperature and 25 μL of CellTiter-Glo® solution was added to each well. The plates were loaded into a BioTek Synergy H1 MD plate reader and shaken for 2 min, stabilized for 10 min without shaking, and then the luminescence values were read for each well (luminescence integration step 1 ms). Wells containing media with the vehicle DMSO with or without cells were used as controls to represent, respectively, the maximum viability and the lowest viability (background signal) for the cytotoxicity studies with HepG2 and HEK293 cell lines. The viability values for the assay performed with the PC12 Tet-Off-SOD1^G85R YFP cells were normalised for the vehicle (0.1 % DMSO) and (−)-MG-132 alone treatments, which represented respectively the […] viability for the assay.
(§3) The results are presented as an average of three independent experiments, each performed in triplicate, for the cytotoxicity experiments performed with HepG2 and HEK293 cells. The results for the protective screening with the PC12 Tet-Off-SOD1^G85R YFP cells are presented as an average of four replicates.

[4] = system: HepG2 cells; assay: In vitro cytotoxicity, CellTiter-Glo, HepG2; format: cell-based; details: cytotoxicity EC50 (HepG2, HEK293) versus PC12-SOD1^G85R EC50
Protocol: as §2, §3

[5] = Microsomal metabolic stability, human; format: in vitro ADME; details: liver microsomes; for microsomal CLint at 1.1 μM: pH 7.4, 0.5 mg/mL; for half-life at 1.1 μM: pH 7.4, read-out: t1/2 (human)
Protocol: as §1

[6] = system: PC12-SOD1^G85R YFP cells co-treated with MG132; assay: Viability screening against MG132-induced toxicity, CellTiter-Glo; format: cell-based; details: PC12-SOD1^G85R YFP cells co-treated with MG132 and the compounds; read-out: PC12-SOD1^G85R EC50, in vitro viability screening (protection against MG132-induced toxicity)
Protocol: as §2, with “assay. […]” for “assay.”

| substrate for the BCRP transporter [1] | Papp A→B at 120 min [1] [×10⁻⁶ cm/s] | Papp B→A at 120 min [1] [×10⁻⁶ cm/s] | efflux ratio at 120 min [1] | microsomal CLint at 1.1 μM [2] [µL/min/mg] | half-life at 1.1 μM [2] [min] | microsomal CLint at 1.1 μM [5] [µL/min/mg] | half-life at 1.1 μM [5] [min] | Compound | viability at 24 h, 30 μM [3] [%] | viability at 48 h, 30 μM [3] [%] | EC50 at 24 h [3] [µM] | EC50 at 48 h [3] [µM] | EC50 Fold difference [4] | EC50 [6] [nM] |
| --- | --- | --- | --- | --- | --- | --- | --- | --- | --- | --- | --- | --- | --- | --- |
| substrates | 0.66 ± 0.18 | 31.5 ± 2.73 | 47.4 | 67.3 ± 0.9 | 20.7 ± 0.3 | 25.8 ± 1.6 | 53.9 ± 3.3 | O=C1CC(=O)CC(/C=C/c2cc(C(F)(F)F)cc(C(F)(F)F)c2)C1 [Compound 6, (E)-5-(3,5-Bis(trifluoromethyl)styryl)cyclohexane-1,3-dione] | 91.9 | 94 | > 30 | > 30 | >14 | 1980 ± 250 |
| substrates | 3.62 ± 0.22 | 19.2 ± 0.88 | 5.32 | 35.7 ± 4.7 | 40.7 ± 3.8 | 10.4 ± 3.1 | > 120 | CC(C)(Oc1cc(C(F)(F)F)cc(C(F)(F)F)c1)C1CC(=O)CC(=O)C1 [Compound 20, 5-(2-(3,5-bis(trifluoromethyl)phenoxy)propan-2-yl)cyclohexane-1,3-dione] | 96 | 92.3 | > 30 | > 30 | >11 | 2470 ± 150 |

Reference: paper PMC12648443, “Modifications of NU-9, a potent protein aggregation inhibitor. Properties and activity in a cellular model of amyotrophic lateral sclerosis” (Bioorganic chemistry, 2025)
